Data on 21 molecules can be found in patent publication US12172975B2, “1H-indazole carboxamides as receptor-interacting protein kinase 1 inhibitors (RIPK1)” (BRISTOL-MYERS SQUIBB COMPANY, priority 2018, dated 2024).

One test relates to MLKL phosphorylation in HT29-L23 human colorectal adenocarcinoma cells. As to the kind of experiment: MLKL Phosphorylation High-Content Assay. The following applies: Homo sapiens, 6 h, necroptosis induced with TNFα, SMAC mimetic and Z-VAD, read-out: pMLKL (IC50). The class given is cell-based. Here is the method:
MLKL Phosphorylation High-Content Assay
HT29-L23 human colorectal adenocarcinoma cells were maintained in RPMI 1640 medium containing 10% heat-inactivated FBS, 1% Penicillin-Streptomycin and 10 mM HEPES. Cells were seeded at 2,000 cells/well in 384 well tissue culture-treated microplates (Greiner #781090-3B) and incubated at 37° C. (5% CO2/95% O2) for 2 d. […] (5% CO2/95% O2). Necroptopsis was induced using a mixture of human TNFα (35 ng/mL) (Peprotech #300-01A), SMAC mimetic (from US 2015/0322111 A1) (700 nM) and Z-VAD ([…]) (BD pharmingen #51-6936). Following 6 h incubation at 37° C. (5% CO2/95% O2), the cells were fixed with 4% formaldehyde (ACROS 11969-0010) for 15 min at rt, then permeabilized with phosphate buffered saline (PBS) containing 0.2% Triton-X-100 for 10 min. MLKL phosphorylation was detected using anti-MLKL (phospho S358) antibody (Abeam #ab 187091) (1:1000 dilution in Blocking Buffer [PBS supplemented with 0.1% BSA]) with ON incubation at 4° C. After washing three times in PBS, goat anti-rabbit Alexa-488 (1:1000 dilution) (Life Technologies, A11008) and Hoechst 33342 (Life Technologies, H3570) (1:2000 dilution) in Blocking Buffer were added for 1 h at rt.
Following another three cycles of washes in PBS, the microplates were sealed, and cellular images were acquired in the Cellomics ArrayScan VTI high-content imager equipped with an X1 camera. Fluorescent images were taken using a 10× objective and the 386-23 BGRFRN_BGRFRN and 485-20 BGRFRN_BGRFRN filter sets, for nuclei and MLKL phosphorylation, respectively. The image sets were analyzed using the Compartmental Analysis Bioapplication software (Cellomics). The level of MLKL phosphorylation was quantified as MEAN_CircRingAvglntenRatio. The maximal inhibitory response was defined by the activity induced by Neels (CAS #: 852391-15-2, 6.25 μM). […] The data were fitted using the 4-parameter logistic equation to calculate the IC50 and Ymax values.
By IC50 is commonly meant the midpoint of a concentration-inhibition curve. `CNC(=O)c1n[nH]c2cc(-c3cnc(OC)c(C(=O)N[C@@H]4C[C@H]4c4ccccc4)c3)ccc12` [Example 45, 6-(6-methoxy-5-{[(1R,2S)-2-phenylcyclopropyl]carbamoyl}-pyridin-3-yl)-N-methyl-1H-indazole-3-carboxamide]: the IC50 was determined as 5 nM. Regarding `CNC(=O)c1n[nH]c2cc(-c3cnc(OC)c(C(=O)N[C@H](C)CC(=O)OC(C)(C)C)c3)ccc12` [Example 141, tert-butyl (3R)-3-({2-methoxy-5-[3-(methylcarbamoyl)-1H-indazol-6-yl]pyridin-3-yl}-formamido)butanoate], the IC50 is 41 nM.

For `CNC(=O)c1n[nH]c2cc(-c3cnc(OC)c(C(=O)N[C@H]4CC[C@@H](c5ccccc5)C4)c3)ccc12` [Example 67, 6-(6-methoxy-5-{[(1S,3R)-3-phenylcyclopentyl]carbamoyl}-pyridin-3-yl)-N-methyl-1H-indazole-3-carboxamide], the IC50 stood at 39 nM. On the same count and under the same terms, the same measure for `CNC(=O)c1n[nH]c2cc(-c3cnc(OC)c(C(=O)NC(C)c4cccc(OC(F)(F)F)c4)c3)cc(F)c12` (stereo not drawn) [Example 147, 4-fluoro-6-[6-methoxy-5-({1-[3-(trifluoromethoxy)-phenyl]ethyl}carbamoyl)-pyridin-3-yl]-N-methyl-1H-indazole-3-carboxamide]: 110 nM; for `[2H]C([2H])([2H])Oc1ncc(-c2ccc3c(C(=O)NC)n[nH]c3c2)cc1C(=O)NC(C)c1ccccc1OC(F)(F)F` (single isomer, unassigned) [Example 15, 6-(6-methoxyd3-5-((1-(2-(trifluoromethoxy)phenyl)ethyl)carbamoyl)pyridin-3-yl)-N-methyl-1H-indazole-3-carboxamide]: 3.4 nM; for `[2H]C([2H])([2H])Oc1ncc(-c2ccc3c(C(=O)NC4CC4)n[nH]c3c2)cc1C(=O)N[C@@H](C)c1cccc(C(F)(F)F)c1` [Example 211, N-cyclopropyl-6-[6-(deutero)-methoxy-5-{[(1S)-1-[3-(trifluoro-methyl)phenyl]ethyl]carbamoyl}-pyridin-3-yl]-1H-indazole-3-carboxamide]: 27 nM. The same measure, in the same setting: as for `CNC(=O)c1n[nH]c2cc(-c3cnc(OC)c(C(=O)NCCCC(=O)N(CC4CC4)C4CC4)c3)ccc12` [Example 142, 6-[5-({3-[cyclopropyl(cyclo-propylmethyl)carbamoyl]-propyl}carbamoyl)-6-meth-oxypyridin-3-yl]-N-methyl-1H-indazole-3-carboxamide], the figure is 120 nM; as for `[2H]C([2H])([2H])NC(=O)c1n[nH]c2cc(-c3cnc(OC([2H])([2H])[2H])c(C(=O)N[C@@H](C)c4cccc(OC(F)(F)F)c4)c3)ccc12` [Example 220, 6-[6-(deutero)methoxy-5-{[(1S)-1-[3-(trifluoromethoxy)phenyl]ethyl]-carbamoyl}pyridin-3-yl]-N-(deutero)-methyl-1H-indazole-3-carboxamide], 100 nM; as for `[2H]C([2H])([2H])NC(=O)c1n[nH]c2cc(-c3cnc(OC([2H])([2H])[2H])c(C(=O)N[C@H](C)c4cc(OC(F)(F)F)ccc4F)c3)ccc12` [Example 218, 6-(5-{[(1R)-1-[2-fluoro-5-(trifluoro-methoxy)phenyl]ethyl]carbamoyl}-6-(deutero)methoxypyridin-3-yl)-N-(deutero)methyl-1H-indazole-3-carboxamide], 32 nM. Take `[2H]C([2H])([2H])Oc1ncc(-c2ccc3c(C(=O)NC)n[nH]c3c2)cc1C(=O)N[C@H](c1cc(OC(F)(F)F)ccc1F)C([2H])([2H])[2H]` [Example 10, (S)-6-(5-((1-(2-fluoro-5-(trifluoromethoxy)phenyl)ethyl-2,2,2-d3)carbamoyl)-6-(methoxy-d3)pyridin-3-yl)-N-methyl-1H-indazole-3-carboxamide]: the IC50 stood at 6.4 nM. For `CNC(=O)c1n[nH]c2cc(-c3cnc(OC)c(C(=O)NCCC(O)c4ccc(F)c(F)c4)c3)ccc12` (stereo not drawn) [Example 39, 6-(5-{[3-(3,4-difluorophenyl)-3-hydroxypropyl]carbamoyl}-6-methoxypyridin-3-yl)-N-methyl-1H-indazole-3-carboxamide], the IC50 was found to be 8 nM. Same read-out and setting: the same measure for `[2H]C([2H])([2H])NC(=O)c1n[nH]c2cc(-c3cnc(OC([2H])([2H])[2H])c(C(=O)N[C@H](C)c4ccccc4C(F)(F)F)c3)ccc12` [Example 219, 6-[6-(deutero)methoxy-5-{[(1R)-1-[2-(trifluoromethyl)phenyl]ethyl]-carbamoyl}pyridin-3-yl]-N-(deutero)-methyl-1H-indazole-3-carboxamide]: 18 nM; for `[2H]C([2H])([2H])Oc1ncc(-c2ccc3c(C(=O)NC)n[nH]c3c2)cc1C(=O)N[C@@H](C)c1cccc(OC(F)(F)F)c1` [Example 25]: 190 nM. Still for that read-out and setting: the same measure for `[2H]C([2H])([2H])Oc1ncc(-c2ccc3c(C(=O)NC4CC4)n[nH]c3c2)cc1C(=O)NC(C)c1cccc(OC(F)(F)F)c1` (stereo not drawn) [Example 197, N-cyclopropyl-6-[6-(deutero)-methoxy-5-({1-[3-(trifluorometh-oxy)phenyl]ethyl}carbamoyl)-pyridin-3-yl]-1H-indazole-3-carboxamide]: 52 nM; for `[2H]C([2H])([2H])Oc1ncc(-c2ccc3c(C(=O)NC)n[nH]c3c2)cc1C(=O)N[C@@H](C)c1cc(C(F)(F)F)ccc1F` [Example 32, 6-(5-{[(1S)-1-[2-fluoro-5-(trifluoromethyl)phenyl]ethyl]-carbamoyl}-6-(deutero)meth-oxypyridin-3-yl)-N-methyl-1H-indazole-3-carboxamide]: 19 nM.

Consider `COc1ncc(-c2ccc3c(C(=O)N[C@H](C)C4CC4)n[nH]c3c2)cc1C(=O)NCc1ccccc1OC(F)(F)F` [Example 171, N-[(1R)-1-cyclopropylethyl]-6-[6-methoxy-5-({[2-(trifluoro-methoxy)phenyl]methyl}-carbamoyl)pyridin-3-yl]-1H-indazole-3-carboxamide], for which the IC50 amounted to 120 nM.

Still in this test, the particulars now being: necroptosis induced with TNFα, SMAC mimetic and Z-VAD, 6 h, read-out: pMLKL (IC50).
`CNC(=O)c1n[nH]c2cc(-c3cnc(OC)c(C(=O)NCC4CC4c4cccc(F)c4)c3)ccc12` (stereo not drawn) [Example 49, 6-[5-({[2-(3-fluorophenyl)-cyclopropyl]methyl}carbamoyl)-6-methoxypyridin-3-yl]-N-methyl-1H-indazole-3-carbox-amide]: the IC50 is 21 nM. Turning to `CNC(=O)c1n[nH]c2cc(-c3cnc(OC)c(C(=O)NC[C@H]4C[C@@H]4c4ccc(F)cc4)c3)ccc12` [Example 43, 6-[5-({[(1S,2S)-2-(4-fluoro-phenyl)cyclopropyl]methyl}-carbamoyl)-6-methoxypyridin-3-yl]-N-methyl-1H-indazole-3-carboxamide], the IC50 was 99 nM. Still for that read-out and setting: as for `CNC(=O)c1n[nH]c2cc(-c3cnc(OC)c(C(=O)NCC4CC4c4cccc(F)c4)c3)ccc12` (stereo not drawn) [Example 48, 6-[5-({[2-(3-fluorophenyl)-cyclopropyl]methyl}carbamoyl)-6-methoxypyridin-3-yl]-N-methyl-1H-indazole-3-carbox-amide], the figure is 176 nM; as for `CNC(=O)c1n[nH]c2cc(-c3cnc(OC)c(C(=O)N[C@@H](C)c4cc(OC(F)(F)F)ccc4F)c3)ccc12` [Example 222], 14 nM; as for `CNC(=O)c1n[nH]c2cc(-c3cnc(OC)c(C(=O)NCc4cc(F)cc(F)c4OC)c3)ccc12` [Example 89, 6-(5-{[(3,5-difluoro-2-methoxy-phenyl)methyl]carbamoyl}-6-methoxy-pyridin-3-yl)-N-methyl-1H-indazole-3-carbox-amide], 85 nM.
